Molecules are shown by their SMILES.

The test system of assay [1] is KRas-mediated phosphorylation of ERK in H727 cells. Put plainly: Inhibition of KRas-mediated phosphorylation of ERK (Cisbio HTRF pERK), H727 cells. The class given is cell-based. The following applies: Homo sapiens, NCI-H727, H727 cells; HTRF pERK. In outline:
(§1)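 Each compound was tested at 10 concentrations, threefold apart with 10 uM the highest, for 3 hrs on 6,000 seeded cells; final DMSO was 0.8% and Trametinib (0.2 uM) served as Min control. Lysed cells were analysed for pERK by HTRF.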

Assay [2] relates to KRas-mediated phosphorylation of ERK in PSN1 cells. Put plainly: Inhibition of KRas-mediated phosphorylation of ERK (Cisbio HTRF pERK), PSN1 cells. The class given is cell-based. The conditions noted are these: Homo sapiens. The procedure, abridged:
(§2)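 Day 1 seeding: 6,000 cells per well, RPMI/10% FBS, left overnight at 37° C. with 5% CO2. Plates then stood covered for 4 h at room temperature prior to HTRF detection of pERK.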

The subject of assay [3] is KRas-mediated phosphorylation of ERK in H358 cells. Put plainly: Inhibition of KRas-mediated phosphorylation of ERK (Cisbio HTRF pERK), H358 cells. The class given is cell-based. The following applies: Homo sapiens, NCI-H358, HTRF pERK. The procedure, abridged: as §1
Assay [4] concerns KRas-mediated phosphorylation of ERK in MKN1 cells. Put plainly: Inhibition of KRas-mediated phosphorylation of ERK (Cisbio HTRF pERK), MKN1 cells. The following applies: Homo sapiens, MKN-1. The class given is cell-based. The procedure, abridged: as §2
Assay [5] has as its system KRas-mediated phosphorylation of ERK in AsPC-1 cells. Put plainly: Inhibition of KRas-mediated phosphorylation of ERK (Cisbio HTRF pERK), AsPC-1 cells. The class given is cell-based. The following applies: Homo sapiens, ASPC1, AsPC-1 cells; HTRF pERK. In outline: as §1
Assay [6] concerns KRas-mediated phosphorylation of ERK in A549 cells. Put plainly: Inhibition of KRas-mediated phosphorylation of ERK (Cisbio HTRF pERK), A549 cells. The class given is cell-based. The following applies: Homo sapiens, HTRF pERK. The procedure, abridged: (§3)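 Signal read by HTRF (d2/Cryptate antibody pair, 2 hr room-temperature incubation on lysate). Cells: 6,000 per well, 3 hr compound exposure. Titration: 10 uM highest, 3-fold, 10 points.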

In assay [7] the test system is KRas-mediated phosphorylation of ERK in HCT116 cells. Put plainly: Inhibition of KRas-mediated phosphorylation of ERK (Cisbio HTRF pERK), HCT116 cells. The class given is cell-based. The following applies: Homo sapiens, HCT-116, HTRF pERK. In outline:
as §3

The test system of assay [8] is KRas-mediated phosphorylation of ERK in H460 cells. Put plainly: Inhibition of KRas-mediated phosphorylation of ERK (Cisbio HTRF pERK), H460 cells. The class given is cell-based. The following applies: Homo sapiens, NCI-H460, HTRF pERK. In outline: as §1
The target in another assay is T1, KRas^G12V (Homo sapiens, UniProt P01116, G12V).
T1 construct: Biotinylated KRas (corresponding to amino acids 1-169, produced at Accelegan Inc.); biotin (biotinylated); purchased Accelegan Inc
T1 sequence (P01116 1-169 isoform P01116-2 G12V): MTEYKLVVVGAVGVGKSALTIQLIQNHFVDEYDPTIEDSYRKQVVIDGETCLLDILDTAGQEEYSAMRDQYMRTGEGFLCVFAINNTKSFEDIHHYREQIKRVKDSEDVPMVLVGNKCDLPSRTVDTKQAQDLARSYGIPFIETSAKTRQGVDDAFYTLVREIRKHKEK
Put plainly: KRas binding assay (TR-FRET tracer displacement), KRas G12V.

Another assay addresses T2, KRas^G12D (Homo sapiens, UniProt P01116, G12D).
T2 construct: Biotinylated KRas (corresponding to amino acids 1-169, produced at Accelegan Inc.); biotin (biotinylated); purchased Accelegan Inc
Put plainly: KRas binding assay (TR-FRET tracer displacement), KRas G12D.

A further assay has as its target T3, KRas^G12R (Homo sapiens, UniProt P01116, G12R).
T3 construct: Biotinylated KRas (corresponding to amino acids 1-169, produced at Accelegan Inc.); biotin (biotinylated); purchased Accelegan Inc
Put plainly: KRas binding assay (TR-FRET tracer displacement), KRas G12R.

T3 sequence (P01116 1-169 isoform P01116-2 G12R): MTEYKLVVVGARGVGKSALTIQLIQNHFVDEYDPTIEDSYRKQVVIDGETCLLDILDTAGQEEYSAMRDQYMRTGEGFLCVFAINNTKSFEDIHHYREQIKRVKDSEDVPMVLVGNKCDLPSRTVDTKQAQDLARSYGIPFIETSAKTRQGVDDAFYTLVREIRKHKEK
T2 sequence (P01116 1-169 isoform P01116-2 G12D): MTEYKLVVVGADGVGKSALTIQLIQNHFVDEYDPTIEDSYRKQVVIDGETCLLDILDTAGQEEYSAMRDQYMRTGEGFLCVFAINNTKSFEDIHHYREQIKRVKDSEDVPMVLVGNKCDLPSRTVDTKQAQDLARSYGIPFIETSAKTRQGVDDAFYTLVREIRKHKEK

As for `CCc1c(F)ccc2cc(O)cc(-c3ncc4c(N5CCC[C@@](C)(O)C5)nc(OC[C@]56CCCN5[C@@H](COC)CC6)nc4c3F)c12` [Example 877, (R)-1-(7-(8-ethyl-7-fluoro-3-hydroxynaphthalen-1-yl)-8-fluoro-2-(((3R,7aR)-3-(methoxymethyl)tetrahydro-1H-pyrrolizin-7a(5H)-yl)methoxy)pyrido[4,3-d]pyrimidin-4-yl)-3-methylpiperidin-3-ol], the IC50 in [1] was 189 nM; in [2] it was 2150 nM; in assay [3], 40 nM; in [4], 104 nM; in assay [5], 79 nM; in assay [6], 92 nM. Moreover, the IC50 in [7] was 176 nM; in assay [8], 86 nM; at KRas^G12V, 3 nM; at KRas^G12D, 3 nM; on KRas^G12R it was 5 nM.

Regarding `CCc1c(F)ccc2cc(O)cc(-c3ncc4c(N5CCC[C@@](C)(O)C5)nc(OC[C@@]56CCCN5[C@@H](CF)CC6)nc4c3F)c12` [Example 878, (R)-1-(7-(8-ethyl-7-fluoro-3-hydroxynaphthalen-1-yl)-8-fluoro-2-(((3R,7aS)-3-(fluoromethyl)tetrahydro-1H-pyrrolizin-7a(5H)-yl)methoxy)pyrido[4,3-d]pyrimidin-4-yl)-3-methylpiperidin-3-ol], the IC50 in assay [1] is 83 nM; in assay [2], 4000 nM; in [3], 52 nM; in assay [4], 16 nM; in assay [5] it was 43 nM; in [6], 125 nM. The IC50 in [7] amounted to 186 nM; in assay [8], 53 nM; at KRas^G12V it was 3 nM; on KRas^G12D, 3 nM; on KRas^G12R it was 6 nM.

For the molecule `CCc1c(F)ccc2cc(O)cc(-c3ncc4c(N5CCC[C@@](C)(O)C5)nc(OC[C@]56CCCN5[C@H](CF)CC6)nc4c3F)c12` [Example 879, (R)-1-(7-(8-ethyl-7-fluoro-3-hydroxynaphthalen-1-yl)-8-fluoro-2-(((3S,7aR)-3-(fluoromethyl)tetrahydro-1H-pyrrolizin-7a(5H)-yl)methoxy)pyrido[4,3-d]pyrimidin-4-yl)-3-methylpiperidin-3-ol], the IC50 came to 35 nM in [1]; 889 nM in assay [2]; 14 nM in assay [3]; 1 nM in [4]; 12 nM in assay [5]; 30 nM in assay [6]. For the same molecule, the IC50 in [7] is 65 nM; in assay [8] it was 25 nM; at KRas^G12V, under 2 nM; at KRas^G12D, 2 nM; at KRas^G12R, 3 nM.

Take `CCc1c(F)ccc2cc(O)cc(-c3ncc4c(N5CC6CCC(C5)C65OCCO5)nc(OC[C@@]56CCCN5C[C@H](F)C6)nc4c3F)c12` [Example 883, 5-ethyl-6-fluoro-4-(8-fluoro-2-(((2R,7aS)-2-fluorotetrahydro-1H-pyrrolizin-7a(5H)-yl)methoxy)-4-(3-azaspiro[bicyclo[3.2.1]octane-8,2′-[1,3]dioxolan]-3-yl)pyrido[4,3-d]pyrimidin-7-yl)naphthalen-2-ol]: the concentration for half-maximal inhibition (IC50) was 252 nM in assay [1]; over 10000 nM in assay [2]; 95 nM in [3]; 94 nM in assay [4]; 1170 nM in [5]; 822 nM in assay [6]. Besides, the IC50 in assay [7] worked out at 772 nM; in assay [8], 211 nM; at KRas^G12V it was 7 nM; at KRas^G12D it was 53 nM; on KRas^G12R, 12 nM.

As for `CCc1c(F)ccc2cc(O)cc(-c3ncc4c(N5CCC[C@@](C)(O)C5)nc(OC[C@]56CCCN5[C@H](COC)CC6)nc4c3F)c12` [Example 885, (R)-1-(7-(8-ethyl-7-fluoro-3-hydroxynaphthalen-1-yl)-8-fluoro-2-(((3S,7aR)-3-(methoxymethyl)tetrahydro-1H-pyrrolizin-7a(5H)-yl)methoxy)pyrido[4,3-d]pyrimidin-4-yl)-3-methylpiperidin-3-ol], the IC50 in assay [1] turned out to be 39 nM; in assay [2] it was 1320 nM; in assay [3], 7 nM; in assay [4], 5 nM; in assay [5] it was 14 nM; in assay [6], 30 nM. In addition, the IC50 in [7] was 16 nM; in assay [8], 8 nM; on KRas^G12V it was under 2 nM; on KRas^G12D it was under 2 nM; on KRas^G12R, under 2 nM.

`CCc1c(F)ccc2cc(O)cc(-c3ncc4c(N5CCC[C@@](C)(O)C5)nc(OC[C@@]56CCCN5[C@@H](COC)CC6)nc4c3F)c12` [Example 886, (R)-1-(7-(8-ethyl-7-fluoro-3-hydroxynaphthalen-1-yl)-8-fluoro-2-(((3R,7aS)-3-(methoxymethyl)tetrahydro-1H-pyrrolizin-7a(5H)-yl)methoxy)pyrido[4,3-d]pyrimidin-4-yl)-3-methylpiperidin-3-ol]: the IC50 came to 135 nM in assay [1]; 2560 nM in assay [2]; 18 nM in [3]; 22 nM in [4]; 40 nM in [5]; 73 nM in assay [6]. The IC50 in assay [7] worked out at 59 nM; in assay [8] it was 27 nM; on KRas^G12V, 2 nM; at KRas^G12D it was 2 nM; at KRas^G12R it was 4 nM.

Turning to `CCc1c(F)ccc2cc(O)cc(-c3ncc4c(N5CC6CCC(C(=O)NC)(C6)C5)nc(OC[C@@]56CCCN5C[C@H](F)C6)nc4c3F)c12` (stereo partly drawn) [Example 889, 3-(7-(8-ethyl-7-fluoro-3-hydroxynaphthalen-1-yl)-8-fluoro-2-(((2R,7aS)-2-fluorotetrahydro-1H-pyrrolizin-7a(5H)-yl)methoxy)pyrido[4,3-d]pyrimidin-4-yl)-N-methyl-3-azabicyclo[3.2.1]octane-1-carboxamide], the IC50 in assay [1] was 129 nM; in [2] it was over 10000 nM; in assay [3], 24 nM; in assay [4] it was 55 nM; in assay [5], 600 nM; in assay [6] it was 365 nM. Further, the IC50 in assay [7] is 188 nM; in assay [8], 134 nM; at KRas^G12V, under 2 nM; at KRas^G12D, 4 nM; at KRas^G12R, 5 nM.

Turning to `CCc1c(F)ccc2cc(O)cc(-c3ncc4c(N5CC6CCC(COC)(C6)C5)nc(OC[C@@]56CCCN5C[C@H](F)C6)nc4c3F)c12` (stereo partly drawn) [Example 891, 5-ethyl-6-fluoro-4-(8-fluoro-2-(((2R,7aS)-2-fluorotetrahydro-1H-pyrrolizin-7a(5H)-yl)methoxy)-4-(1-(methoxymethyl)-3-azabicyclo[3.2.1]octan-3-yl)pyrido[4,3-d]pyrimidin-7-yl)naphthalen-2-ol], the IC50 in [1] was 295 nM; in [2], over 10000 nM; in [3], 382 nM; in [4] it was 73 nM; in assay [5], 621 nM; in assay [6] it was 658 nM. Moreover, the IC50 in [7] was determined as 568 nM; in [8] it was 150 nM; on KRas^G12V, 6 nM; at KRas^G12D, 22 nM; at KRas^G12R, 9 nM.

For the origin of these results see US20260015350A1, “AZAQUINAZOLINE PAN-KRAS INHIBITORS” (Mirati Therapeutics, Inc., priority 2022, published 2026).
